Laboratory results as given in patent US6168798A, “Non-irritating composition for treating acne and other skin conditions” (Bristol-Myers Squibb Company, priority 1997, dated 2001).

Tested on: isolated bovine corneas
Description: The bovine corneal opacity and permeability assay (BCOP) was used to assess the ocular irritancy of test formulations to isolated bovine corneas. Bovine corneas, obtained as a by-product from freshly slaughtered animals, were mounted in special holders and exposed to the test formulations. An in vitro score was determined for each test material based on the induction of opacity and permeability to fluorescein in the isolated bovine corneas. In these experiments, the potential ocular irritancy of the composition formulated in accordance with the invention and exemplified in Table 1 was compared with that of the commercially-available comparative product. Ocular irritancy was measured by changes in opacity and permeability to fluorescein in isolated bovine corneas. Five corneas were treated with each test material. Based on changes in corneal opacity and permeability relative to control corneas, an in vitro score was determined. […]
After a minimum of one hour of incubation, the corneal holders with the corneas in place were removed from the incubator and the medium was removed from both compartments and replaced with fresh medium. The opacity was determined for each cornea using a Spectro Design OP-KIT opacitometer. Three corneas whose opacity readings were close to the median opacity for all of the corneas were selected as the negative control corneas. […]

Compound: CCO [ethanol (95%), ethanol]
- Irritation potential rating from in vitro score: moderate to severe
